Reference: PubChem BioAssay AID179 (DTP/NCI, 2004)
Active and inactive are the calls of the source.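 The calls were made as follows: active = compounds giving half or more protection of infected cells from virus-caused growth loss, again on retest; inactive = the rest.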

System: CEM cells HIV-1 protection, formazan growth assay
Test: NCI AIDS Antiviral Assay
Conditions: for IC50: measured here: growth of uninfected CEM cells
How it was run: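 Category rules: moderately active means at least 50% protection on retest, and confirmed active means 100% protection reproducibly. The underlying data came from a formazan growth assay in HIV-1-infected CEM cells.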

Row | SMILES | EC50 [µM] | IC50 [µM] | outcome
1 | CN1C(=O)[C@H](c2c[nH]c3ccccc23)[C@H](c2c[nH]c3ccccc23)C1=O | > 129 | 38 | 
2 | O=C1CCC2COc3ccc(O)c1c32 (stereo unspecified) |  |  | inactive
3 | COC(=O)c1ccc(CSc2ccc(N)cc2)cc1 |  |  | inactive
4 | CC(C)CC(=O)NC(C(=O)NC(C(=O)NC(CC(C)C)C(O)CC(=O)NC(C)C(=O)NC(CC(C)C)C(O)CC(=O)O)C(C)C)C(C)C (stereo unspecified) | > 36.3 | > 36.3 | 
5 | C/C=N/NC1=Nc2ccc(Cl)cc2C(c2ccccc2)=NN1C | > 200 | 33.9 | 
6 | CC(=O)Oc1c(C)cc2c(c1C)C(C)(C)CN2C(=O)C(C)(C)C | > 200 | 66.1 | 
7 | CC(=O)Nc1cnc2c(nc3cc(C)ccn32)c1C | > 74.1 | > 74.1 | 
8 | CC(=Nc1c2ccccc2nc2ccccc12)N(C)C | > 200 | 28.2 | 
9 | C1CCC(CC2CCC(NC3=NCCO3)CC2)CC1 (stereo unspecified) | > 200 | 31.6 | 
10 | Nc1ccn(C2CC(O)C(COP(=O)(O)OC3C(COP(=O)(O)O)OCC3n3cnc4c(N)ncnc43)O2)c(=O)n1 (stereo unspecified) | > 200 | > 200 | 
11 | COc1cc2c(c(OC)c1OC)-c1cc3c(cc1C(=O)CC(C(=O)O)(C(=O)O)C2)OCO3 | > 562 | > 562 | 
12 | COc1cc(-c2ccc(N=Nc3cc(S(=O)(=O)O)c4ccccc4c3N)c(OC)c2)ccc1N=Nc1cc(S(=O)(=O)O)c2ccccc2c1N | 13.2 | 155 | 
13 | Nc1c(-c2ccccc2[N+](=O)[O-])nc2ccccn12 | > 513 | 120 | 
14 | CN(CCCNC(=O)c1cn(C)c2c1ccc1ccccc12)CCCNC(=O)c1cn(C)c2c1ccc1ccccc12 | > 200 | 2.88 | 
15 | CC(=O)Oc1c2oc3ccc(Cl)cc3c(=O)c2c(O)c2ccsc12 | > 200 | > 200 | 
16 | C/C=C(\C)C(=O)O[C@@H]1CC(C)(C)CC2C3=CCC4[C@]56CC[C@](O)(OC5)C(C)(C)C6CC[C@@]4(C)C3(C)CC[C@]21C(=O)O (stereo partly specified) | > 200 | 18.2 | 
17 | O=[N+]([O-])C(=C(N1CCCCC1)N1CCCCC1)/C(Cl)=C(\Cl)Br | > 200 | 1.29 | 
18 | CN1C2CCC1[C@@H](CO)[C@@H](O)C2 (stereo partly specified) | > 1200 | > 1200 | 
19 | S=c1c2cn[nH]c2nc2scc(-c3ccc(Cl)cc3)n12 | > 200 | 13.2 | 
20 | CCCCCCCCS(=O)(=O)O | > 200 | > 200 | 

Row | SMILES | EC50 [µM] | IC50 [µM] | outcome
21 | O=S(=O)(F)c1ccc(C[P+](c2ccccc2)(c2ccccc2)c2ccccc2)cc1 | > 200 | > 100 | 
22 | CCOC(=O)C(/C(=N/NC(=O)OC)C(=O)Nc1ccc(C(C)=O)cc1)c1cnc2ccccc2n1 (stereo unspecified) | > 39.8 | > 39.8 | 
23 | COc1cc(C2c3cc4c(cc3OC(N3CCOCC3)C2C)OCO4)cc(OC)c1OC(C)=O (stereo unspecified) | > 200 | 3.31 | 
24 | CSC(SC)=C(C#N)C(=O)Nc1cccc(Cl)c1 | > 200 | 30.2 | 
25 | O=C1C2C(C(=O)N1c1ccccc1)C1([N+](=O)[O-])C=C3c4ccccc4N(C(=O)c4ccccc4)C32C2C(=O)N(c3ccccc3)C(=O)C21 (stereo unspecified) |  |  | inactive
26 | COc1ccc(N2C(=O)c3cc([N+](=O)[O-])cnc3S2(=O)=O)cc1 | > 200 | 28.2 | 
27 | COc1ccc(NC(=O)CC/C(CC(=O)c2ccco2)=N/NC(=O)C(N)=O)cc1 | > 25.1 | > 25.1 | 
28 | CC(C)=C/C(CC(O)(C(F)(F)F)C(F)(F)F)=N\O | > 200 | > 200 | 
29 | CSc1n[nH]c(NC(=O)c2ccccc2Br)n1 | > 575 | 427 | 
30 | CCOC(=O)C(CCSC)(CCSC)C(=O)OCC | > 200 | > 200 | 
31 | C=C(C)[C@H]1C2=CC(C(=O)OC)=C(C[C@H](C(=C)C)[C@H]3O[C@H]3C3=C[C@H]1OC3=O)O2 | > 200 | 1.62 | 
32 | O=C1/C(=C/c2ccc3c(c2)OCO3)SC2C=Nc3ccccc3N12 (stereo unspecified) | > 2.24 | > 2.24 | 
33 | COc1cc(/C=C2\CCC(C)c3c2nc(N)c(C#N)c3-c2cc(OC)c(OC)c(OC)c2)cc(OC)c1OC (stereo unspecified) |  |  | inactive
34 | CCOC(=O)NC(NC(=O)OCC)C(NC(=O)OCC)NC(=O)OCC | > 200 | > 200 | 
35 | CC[C@@]1(OS(=O)(=O)O)CCC2C3CC=C4CC(O)CC[C@]4(C)C3CC[C@@]21C (stereo partly specified) | 107 | 224 | 
36 | O=C1/C(=C/c2ccc(Br)cc2)CCC/C1=C\c1ccc(Br)cc1 | > 6.31 | > 6.31 | 
37 | CC(NC(=O)OCc1ccccc1)NC(=O)C(CC(=O)OC(C)(C)C)NC(=O)OC(C)(C)C (stereo unspecified) | > 200 | > 200 | 
38 | CC(C)NCCCCCNc1cccc2cccnc12 | > 200 | 28.8 | 
39 | CC(=O)c1ccc(Cc2ccc(C(C)=O)s2)s1 | > 200 | > 200 | 
40 | COc1cc(C[N+]23CC[N+](Cc4cc(OC)cc(OC)c4)(CC2)C3)cc(OC)c1 | > 525 | 214 | 

Row | SMILES | EC50 [µM] | IC50 [µM] | outcome
41 | CCN1C(c2ccccc2)=CC(c2ccccc2)(C(Cl)(Cl)Cl)C=C1c1ccccc1 | > 200 | 1.78 | 
42 | O=C(/C=C/c1ccccc1)CC(=O)/C=C/c1ccccc1 | > 200 | 30.9 | 
43 | COc1ccc(/C=C/C(=O)Oc2ccc(/C=C3\CCCCC3=O)cc2)cc1 | > 200 | 1.05 | 
44 | Cc1[nH]c2c(ccc3c2ccc2c(=O)c(Cl)c(C)[nH]c23)c(=O)c1Cl | > 200 | > 200 | 
45 | CC12CCC(C(Nc3cc(C(F)(F)F)cc(C(F)(F)F)c3)C1=O)C2(C)C (stereo unspecified) | > 200 | > 200 | 
46 | Brc1ccccc1C=NC12CC3CC(CC(C3)C1)C2 | > 22.9 | > 22.9 | 
47 | CSC1SCC2C(=O)N(C)C(C(C)C)C(=O)OCC(NC(=O)c3cnc4ccccc4n3)C(=O)NC(C)C(=O)N(C)C1C(=O)N(C)C(C(C)C)C(=O)OCC(NC(=O)c1cnc3ccccc3n1)C(=O)NC(C)C(=O)N2C (stereo unspecified) | > 0.12 | 0.000355 | 
48 | O=C(NC(OCc1ccccc1)(C(F)(F)F)C(F)(F)F)OCc1ccccc1 | > 200 | 32.4 | 
49 | Nn1c(NNC(=O)C(=O)Nc2cc(Cl)c(Cl)cc2Cl)n[nH]c1=S | > 123 | > 123 | 
50 | COc1ccc(CN2CCCN(Cc3ccc(OC)cc3)C2c2ccccc2O)cc1 | > 200 | 50.1 | 
51 | CC(=O)OCC1OC(n2c(=S)n(-c3ccccc3)c(=O)c3cc(Br)ccc32)C(OC(C)=O)C(OC(C)=O)C1OC(C)=O (stereo unspecified) | > 10.7 | > 10.7 | 
52 | COC(=O)[C@@H](NS(=O)(=O)CC12CCC(CC1)C2(C)C)C(C)(C)C | > 200 | > 200 | 
53 | CC(=O)Oc1cc(C)cc2ccc(-c3ccc4cc(C)cc(OC(C)=O)c4c3OC(C)=O)c(OC(C)=O)c12 | > 200 | 28.8 | 
54 | N#CC(C#N)=C(N)/C(C#N)=C/c1ccc2[nH]ccc2c1 | > 200 | > 200 | 
55 | c1ccc(-c2nnc3sc4ccccc4n23)cc1 | > 200 | > 200 | 
56 | CC=C(c1cc(Cl)c(OC)c(C(=O)OC)c1)c1cc(Cl)c(OC)c(C(=O)OC)c1 | > 2 | 0.0631 | 
57 | Cc1cc(Cl)cc2c1NC(=O)C2(O)CC(=O)c1ccc(F)cc1 (stereo unspecified) | > 15.5 | > 15.5 | 
58 | CS(=O)(=O)OC1C(COC(=O)c2ccccc2)OC2C1Oc1nc(=O)ccn12 (stereo unspecified) | > 200 | > 200 | 
59 | N/N=C(\c1ccccc1)c1cccs1 | > 200 | > 200 | 
60 | c1ccc2c(c1)-c1ccccc1C2NC1=NCCO1 | > 200 | 26.3 | 
